The values below come from patent US4552882A, “7-(1-Pyrrolyl) derivatives of 1-ethyl-1,4-dihydro-4-oxoquinoline-3-carboxylic acids and 1-ethyl-1,4-dihydro-4-oxo-1,8-naphthyridine-3-carboxylic acids and their use as antimicrobial agents” (Provesan, SA, priority 1983, dated 1985).

The term MIC denotes the lowest concentration that inhibits growth of the organism. Low values mean inhibition by little substance, high ones a need for much substance. A word on the LD50: it is the dose at which mortality reaches 50%. High values mean lower toxicity, low ones greater toxicity.

Data set [1] deals with Streptococcus faecalis ATCC 10541. Put plainly: MIC in vitro. The data set is classed as cell-based. To be noted: Enterococcus faecalis, ATCC10541, Dextrose agar, 37° C., 20 hours. An excerpt:
(§1) (G. L. Daquet and Y. A. Chabbect, Techniques en bacteriologie (Bacteriological techniques), vol. 3, Flammarion Medecine Sciences, Paris, 1972 and W. B. Hugo and A. D. Rusell, Pharmaceutical Microbiology, Blackwell Scientific Publications, London, (1977)). Antibiotic medium no. 1 (seed agar) (Oxoid CM 327) Tryptone-soya broth (Oxoid CM 129) Ringer's physiological solution 1/4 (oxoid BR 52) Dextrose agar (BBL-11165) 0.1 N NaOH "Streptococcus faecalis" ATCC 10541 Each of the microorganisms is seeded by streaking in tubes of Antibiotic medium No. 1 (seed agar), which are then incubated at 37° C. for 20 hours. Using a culture loop, the cultures are then seeded in tryptone-soyabroth and incubated at 37° C. for 20 hours. The culture obtained is diluted to 1/4 with Ringer's physiological solution, so as to obtain a standardized suspension of 10^7 -10^9 cfu/ml for each organism. Starting from a solution of 1,000 μg/ml in 0.1 N NaOH, each product is diluted in Dextrose agar (previously melted and maintained at 50° C.), with successive dilutions so as to obtain the following concentrations: 64--32--16--8--4--2--1--0.5--0.25--0.125 μg of derivative/ml medium. For each product, the solution of each concentration is subsequently distributed into Petri dishes 10 cm in diameter, with 10 ml of medium per dish and the same number of dishes as microorganisms to be tested. As soon as the medium has cooled, the dishes are seeded with the inoculations using 0.4 ml of inoculation per dish. They are spread with a Driglasky loop and the supernatant is removed. The seeded dishes are incubated at 37° C. for 20 hours.

In data set [2] the test system is Citrobacter freundii ATCC 11606. Put plainly: MIC in vitro. The format is cell-based. The following applies: ATCC11606, Dextrose agar, 37° C., 20 hours. The procedure: as §1, with “"Citrobacter freundii"” for “"Streptococcus faecalis"”, “11606” for “10541”
The nature of another data set: in vivo. The following applies: mouse, ip. The procedure:
To determine this toxicity, C.F.L.P. strain albino mice of both sexes, weighing between 19 and 25 grams, have been used as experimental animals. After an 18 hour fast period with water "ad libitum" the derivatives which are the subjects of the present invention are administered intraperitoneally in 5% suspension in gum arabic. The volume of suspension administered has in all cases been 0.4 ml/20 grams (20 ml/kg), changing the concentration of the suspension according to the dose administered.
One hour after the administration of the derivatives, the animals are supplied with Panlab standard rat-mouse feed. The period of observation of mortality has been 7 days.

A further data set has as its system gram-positive cocci. Put plainly: in vitro antimicrobial activity compared to pipemidic acid. The data set is classed as cell-based. Here is the method: (G. L. Daquet and Y. A. Chabbect, Techniques en bacteriologie (Bacteriological techniques), vol. 3, Flammarion Medecine Sciences, Paris, 1972 and W. B. Hugo and A. D. Rusell, Pharmaceutical Microbiology, Blackwell Scientific Publications, London, (1977)).
Antibiotic medium no. 1 (seed agar) (Oxoid CM 327)
Tryptone-soya broth (Oxoid CM 129)
Ringer's physiological solution 1/4 (oxoid BR 52) Dextrose agar (BBL-11165) 0.1 N NaOH
Each of the microorganisms is seeded by streaking in tubes of Antibiotic medium No. 1 (seed agar), which are then incubated at 37° C. for 20 hours. Using a culture loop, the cultures are then seeded in tryptone-soyabroth and incubated at 37° C. for 20 hours. The culture obtained is diluted to 1/4 with Ringer's physiological solution, so as to obtain a standardized suspension of 10^7 -10^9 cfu/ml for each organism.
Starting from a solution of 1,000 μg/ml in 0.1 N NaOH, each product is diluted in Dextrose agar (previously melted and maintained at 50° C.), with successive dilutions so as to obtain the following concentrations: 64--32--16--8--4--2--1--0.5--0.25--0.125 μg of derivative/ml medium.
For each product, the solution of each concentration is subsequently distributed into Petri dishes 10 cm in diameter, with 10 ml of medium per dish and the same number of dishes as microorganisms to be tested.
As soon as the medium has cooled, the dishes are seeded with the inoculations using 0.4 ml of inoculation per dish. They are spread with a Driglasky loop and the supernatant is removed. The seeded dishes are incubated at 37° C. for 20 hours.

Values after ≈ are worked out from the molar mass of the structure shown.

Turning to `CCn1cc(C(=O)O)c(=O)c2cnc(N3CCNCC3)nc21` [Pipemidic acid, reference compound], the MIC in data set [1] was over 64 µg/mL; in data set [2], 4 µg/mL (≈ 13.2 µM).
Turning to `CCn1cc(C(=O)O)c(=O)c2ccc(-n3cccc3)nc21` [Example 3, 1-ethyl-1,4-dihydro-4-oxo-7-(1-pyrrolyl)-1,8-naphthyridine-3-carboxylic acid], the MIC in data set [1] and in data set [2] was 32 µg/mL (≈ 113 µM) each time. Besides, in the data set “in vivo”, the LD50 at 168 h was 900 mg/kg. Moreover, the “"in vitro" activity compared to pipemidic acid” value with gram-positive cocci is “a greater activity”.
For `CCn1cc(C(=O)O)c(=O)c2ccc(-n3cccc3)cc21` [Example 1, 7-(1-pyrrolyl)-1-ethyl-1,4-dihydro-4-oxo-3-quinolinecarboxylic acid], the MIC in data set [1] and in data set [2] was 16 µg/mL (≈ 56.7 µM) in each case. The compound further returned a 50% lethal dose (LD50) at 168 h in “in vivo” of over 800 mg/kg. In addition, the “"in vitro" activity compared to pipemidic acid” value in the data set on gram-positive cocci is “greater than that of pipemidic acid”.
Take `CCn1cc(C(=O)O)c(=O)c2cc(F)c(-n3cccc3)nc21` [Example 4, 1-ethyl-1,4-dihydro-4-oxo-6-fluoro-7-(1-pyrrolyl)-1,8-naphthyridine-3-carboxylic acid]: the MIC in data set [1] was 8 µg/mL (≈ 26.6 µM); in data set [2], 4 µg/mL (≈ 13.3 µM). Besides, the median lethal dose (LD50) at 168 h in the data set “in vivo” was over 1000 mg/kg. Besides, in the data set on gram-positive cocci, the “"in vitro" activity compared to pipemidic acid” value is “greater than that of pipemidic acid”.
On to `CCn1cc(C(=O)O)c(=O)c2cc(F)c(-n3cccc3)cc21` [Example 2, 6-fluoro-7-(1-pyrrolyl)-1-ethyl-1,4-dihydro-4-oxo-3-quinolinecarboxylic acid], for which the MIC in data set [1] worked out at 1 µg/mL (≈ 3.33 µM); in data set [2] it was 8 µg/mL (≈ 26.6 µM). This compound had an LD50 at 168 h in “in vivo” of over 1600 mg/kg. Moreover, the “"in vitro" activity compared to pipemidic acid” value in the data set with gram-positive cocci is reported as “greater than that of pipemidic acid”.
